Test results: ChEMBL document CHEMBL5665443, “Enzyme Inhibitor Single Concentration assay results for EUbOPEN Chemogenomics Library” (2024)

Experiments:
[1] = biological target: T1, Single-strand selective monofunctional uracil DNA glycosylase (Homo sapiens) (UniProt Q53HV7); conditions: Compound Concentration 10.0 uM, Hit No;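 also: enzymatic SMUG1 assay coupled with APE1, reading fluorescence at 594 nm released when a quenched double-stranded DNA oligonucleotide substrate is cleaved and separated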
T1 sequence (whole entry): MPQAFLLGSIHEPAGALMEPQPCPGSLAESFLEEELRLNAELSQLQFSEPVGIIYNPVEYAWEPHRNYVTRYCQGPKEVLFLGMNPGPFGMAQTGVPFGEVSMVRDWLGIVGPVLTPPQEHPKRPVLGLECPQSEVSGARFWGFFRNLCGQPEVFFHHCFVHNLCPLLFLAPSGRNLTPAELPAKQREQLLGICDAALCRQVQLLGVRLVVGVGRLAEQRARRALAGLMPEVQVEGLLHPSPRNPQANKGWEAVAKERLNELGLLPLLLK
Description: Inhibition of SMUG1 by quantifying inhibition of SMUG1-mediated cleavage and dissociation of quenched duplex DNA oligonucleotides, measured as fluorescence at 594 nm. To generate a functional strand incision and increase turn-over this assay is coupled to APE1.

[2] = biological target: T2, Endonuclease 8-like 2 (Homo sapiens) (UniProt Q969S2); conditions: Compound Concentration 10.0 uM, Hit No;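 also: fluorescence at 594 nm reports NEIL2 cutting and release of a quenched double-stranded DNA oligo substrate, reduced signal read as inhibition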
T2 sequence (whole entry): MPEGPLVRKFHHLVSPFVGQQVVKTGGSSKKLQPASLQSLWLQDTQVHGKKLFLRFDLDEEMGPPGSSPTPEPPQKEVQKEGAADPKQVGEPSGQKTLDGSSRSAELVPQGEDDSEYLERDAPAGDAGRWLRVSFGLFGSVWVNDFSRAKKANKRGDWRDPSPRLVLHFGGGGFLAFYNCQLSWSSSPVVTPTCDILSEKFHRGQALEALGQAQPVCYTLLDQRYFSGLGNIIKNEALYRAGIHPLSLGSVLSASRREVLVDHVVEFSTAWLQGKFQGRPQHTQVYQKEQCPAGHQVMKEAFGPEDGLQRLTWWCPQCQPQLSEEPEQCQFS
Description: Inhibition of NEIL2 by quantifying inhibition of NEIL2-mediated cleavage and dissociation of quenched duplex DNA oligonucleotides, measured as fluorescence at 594 nm.

[3] = biological target: Endonuclease 8-like 1 (Homo sapiens) (UniProt Q96FI4); conditions: Compound Concentration 10.0 uM, Hit No;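 also: fluorescence at 594 nm from quenched duplex DNA oligonucleotides released by NEIL1 cleavage and strand separation, reported as reduction of this enzyme activity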
Description: Inhibition of NEIL1 by quantifying inhibition of NEIL1-mediated cleavage and dissociation of quenched duplex DNA oligonucleotides, measured as fluorescence at 594 nm.

[4] = biological target: Uracil-DNA glycosylase (Homo sapiens) (UniProt P13051); conditions: Compound Concentration 10.0 uM, Hit No;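 also: UNG excision on a quenched double-stranded DNA oligo probe, with APE1 added for strand incision and turnover, read as fluorescence at 594 nm as strands separate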
Description: Inhibition of UNG by quantifying inhibition of UNG-mediated cleavage and dissociation of quenched duplex DNA oligonucleotides, measured as fluorescence at 594 nm. To generate a functional strand incision and increase turn-over this assay is coupled to APE1.

[5] = biological target: T3, Endonuclease III-like protein 1 (Homo sapiens) (UniProt P78549); conditions: Compound Concentration 10.0 uM, Hit No;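 also: enzyme assay tracking NTHL1 cutting and release of a quenched double-stranded DNA oligo substrate, read as fluorescence at 594 nm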
T3 sequence (whole entry): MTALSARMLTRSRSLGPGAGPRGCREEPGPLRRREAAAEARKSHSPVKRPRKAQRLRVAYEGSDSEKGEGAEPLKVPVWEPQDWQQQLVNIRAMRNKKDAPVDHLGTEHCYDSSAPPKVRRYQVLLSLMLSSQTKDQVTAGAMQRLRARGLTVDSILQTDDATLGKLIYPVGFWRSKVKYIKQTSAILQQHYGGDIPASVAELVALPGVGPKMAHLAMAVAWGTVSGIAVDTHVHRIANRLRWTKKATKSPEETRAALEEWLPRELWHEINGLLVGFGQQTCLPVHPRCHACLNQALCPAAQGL
Description: Inhibition of NTHL1 by quantifying inhibition of NTHL1-mediated cleavage and dissociation of quenched duplex DNA oligonucleotides, measured as fluorescence at 594 nm.

[6] = biological target: Methyl-CpG-binding domain protein 4 (Homo sapiens) (UniProt O95243); conditions: Compound Concentration 10.0 uM;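 also: MBD4 activity read as fluorescence at 594 nm from cleavage and release of a quenched duplex DNA oligonucleotide, with APE1 coupled to incise the strand and raise turnover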
Description: Inhibition of MBD4 by quantifying inhibition of MBD4-mediated cleavage and dissociation of quenched duplex DNA oligonucleotides, measured as fluorescence at 594 nm. To generate a functional strand incision and increase turn-over this assay is coupled to APE1.

[7] = biological target: N-glycosylase/DNA lyase (Homo sapiens) (UniProt O15527); conditions: Compound Concentration 10.0 uM;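 also: OGG1 cleavage of a quenched duplex DNA oligonucleotide, coupled to APE1 for strand incision, read as fluorescence at 594 nm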
Description: Inhibition of OGG1 by quantifying inhibition of OGG1-mediated cleavage and dissociation of quenched duplex DNA oligonucleotides, measured as fluorescence at 594 nm. To generate a functional strand incision and increase turn-over this assay is coupled to APE1.

[8] = biological target: T4, Adenine DNA glycosylase (Homo sapiens) (UniProt Q9UIF7); conditions: Compound Concentration 10.0 uM, Hit No;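 also: human MUTYH activity read as 594 nm fluorescence from cleavage and release of a quenched DNA duplex, coupled with APE1 for strand incision, lower signal meaning inhibition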
T4 sequence (whole entry): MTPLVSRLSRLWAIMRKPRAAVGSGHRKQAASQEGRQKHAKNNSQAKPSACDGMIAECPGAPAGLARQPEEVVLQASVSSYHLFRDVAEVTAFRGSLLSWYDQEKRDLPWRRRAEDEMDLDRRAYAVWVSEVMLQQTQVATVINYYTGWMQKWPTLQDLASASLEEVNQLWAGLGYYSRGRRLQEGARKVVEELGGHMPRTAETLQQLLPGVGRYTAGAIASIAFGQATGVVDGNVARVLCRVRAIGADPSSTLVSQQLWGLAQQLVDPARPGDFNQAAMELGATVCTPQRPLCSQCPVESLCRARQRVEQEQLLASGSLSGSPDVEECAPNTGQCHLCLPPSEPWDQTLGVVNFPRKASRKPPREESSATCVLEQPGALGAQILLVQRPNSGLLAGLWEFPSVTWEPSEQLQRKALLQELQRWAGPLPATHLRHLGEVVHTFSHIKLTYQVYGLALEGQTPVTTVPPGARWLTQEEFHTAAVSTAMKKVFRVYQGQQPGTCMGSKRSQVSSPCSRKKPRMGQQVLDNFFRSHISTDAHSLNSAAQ
Description: Inhibition of MUTYH by quantifying inhibition of MUTYH-mediated cleavage and dissociation of quenched duplex DNA oligonucleotides, measured as fluorescence at 594 nm. To generate a functional strand incision and increase turn-over this assay is coupled to APE1.

[9] = biological target: DNA-3-methyladenine glycosylase (Homo sapiens) (UniProt P29372); conditions: Compound Concentration 10.0 uM, Hit No;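 also: enzyme assay where MPG cuts a quenched duplex DNA oligonucleotide probe, paired with APE1 for strand incision and turnover, read as fluorescence at 594 nm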
Description: Inhibition of MPG by quantifying inhibition of MPG-mediated cleavage and dissociation of quenched duplex DNA oligonucleotides, measured as fluorescence at 594 nm. To generate a functional strand incision and increase turn-over this assay is coupled to APE1.

[10] = biological target: G/T mismatch-specific thymine DNA glycosylase (Homo sapiens) (UniProt Q13569); conditions: Compound Concentration 10.0 uM;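 also: human TDG cleavage of quenched duplex DNA oligonucleotides coupled to APE1, strand release read as fluorescence at 594 nm, inhibition of TDG activity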
Sequence of G/T mismatch-specific thymine DNA glycosylase (Homo sapiens) (Q13569 whole entry): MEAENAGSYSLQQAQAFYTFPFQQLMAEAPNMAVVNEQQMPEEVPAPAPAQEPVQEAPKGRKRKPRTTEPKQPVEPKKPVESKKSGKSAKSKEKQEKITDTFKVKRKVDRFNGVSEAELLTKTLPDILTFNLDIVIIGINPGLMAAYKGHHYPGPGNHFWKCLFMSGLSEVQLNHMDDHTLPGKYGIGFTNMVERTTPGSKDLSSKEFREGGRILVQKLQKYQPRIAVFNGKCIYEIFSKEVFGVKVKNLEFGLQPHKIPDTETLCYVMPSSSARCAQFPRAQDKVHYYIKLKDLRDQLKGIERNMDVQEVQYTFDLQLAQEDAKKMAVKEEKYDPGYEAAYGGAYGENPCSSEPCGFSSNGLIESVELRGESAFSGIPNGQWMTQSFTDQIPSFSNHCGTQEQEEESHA
Description: Inhibition of TDG by quantifying inhibition of TDG-mediated cleavage and dissociation of quenched duplex DNA oligonucleotides, measured as fluorescence at 594 nm. To generate a functional strand incision and increase turn-over this assay is coupled to APE1.

Sequence of N-glycosylase/DNA lyase (Homo sapiens) (O15527 whole entry): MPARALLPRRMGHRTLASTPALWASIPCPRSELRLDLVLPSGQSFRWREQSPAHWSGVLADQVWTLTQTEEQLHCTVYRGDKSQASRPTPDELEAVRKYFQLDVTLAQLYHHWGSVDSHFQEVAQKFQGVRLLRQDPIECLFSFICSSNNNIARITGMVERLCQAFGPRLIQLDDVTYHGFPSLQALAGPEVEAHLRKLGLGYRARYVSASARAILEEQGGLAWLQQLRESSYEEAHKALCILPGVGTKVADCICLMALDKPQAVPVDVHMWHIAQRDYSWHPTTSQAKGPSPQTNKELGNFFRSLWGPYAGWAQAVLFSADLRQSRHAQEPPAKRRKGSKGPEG
Sequence of Methyl-CpG-binding domain protein 4 (Homo sapiens) (O95243 whole entry, the tested form may be a part): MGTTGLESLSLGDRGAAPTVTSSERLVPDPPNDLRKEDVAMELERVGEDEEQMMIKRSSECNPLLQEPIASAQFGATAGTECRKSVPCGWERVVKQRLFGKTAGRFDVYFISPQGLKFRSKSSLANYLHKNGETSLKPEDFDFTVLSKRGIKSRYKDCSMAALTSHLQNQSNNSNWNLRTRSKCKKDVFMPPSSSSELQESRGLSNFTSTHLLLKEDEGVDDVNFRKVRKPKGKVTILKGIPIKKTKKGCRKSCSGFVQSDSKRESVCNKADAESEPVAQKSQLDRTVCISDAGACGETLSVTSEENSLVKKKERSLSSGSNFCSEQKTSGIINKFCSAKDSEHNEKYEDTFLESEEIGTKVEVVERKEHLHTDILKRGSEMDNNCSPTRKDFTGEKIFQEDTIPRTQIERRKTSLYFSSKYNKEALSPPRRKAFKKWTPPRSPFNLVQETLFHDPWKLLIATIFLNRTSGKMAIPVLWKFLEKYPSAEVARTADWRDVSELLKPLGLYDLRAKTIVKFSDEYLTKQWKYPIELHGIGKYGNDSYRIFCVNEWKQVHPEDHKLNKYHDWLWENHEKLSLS
Sequence of DNA-3-methyladenine glycosylase (Homo sapiens) (P29372 whole entry): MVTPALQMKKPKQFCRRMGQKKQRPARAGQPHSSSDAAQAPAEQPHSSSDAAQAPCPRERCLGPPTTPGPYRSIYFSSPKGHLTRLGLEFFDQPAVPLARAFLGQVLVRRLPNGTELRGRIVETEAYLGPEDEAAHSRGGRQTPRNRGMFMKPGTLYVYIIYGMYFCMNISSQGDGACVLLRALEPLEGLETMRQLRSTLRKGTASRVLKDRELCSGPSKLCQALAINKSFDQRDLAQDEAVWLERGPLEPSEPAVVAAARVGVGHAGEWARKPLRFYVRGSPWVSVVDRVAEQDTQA
Sequence of Uracil-DNA glycosylase (Homo sapiens) (P13051 whole entry): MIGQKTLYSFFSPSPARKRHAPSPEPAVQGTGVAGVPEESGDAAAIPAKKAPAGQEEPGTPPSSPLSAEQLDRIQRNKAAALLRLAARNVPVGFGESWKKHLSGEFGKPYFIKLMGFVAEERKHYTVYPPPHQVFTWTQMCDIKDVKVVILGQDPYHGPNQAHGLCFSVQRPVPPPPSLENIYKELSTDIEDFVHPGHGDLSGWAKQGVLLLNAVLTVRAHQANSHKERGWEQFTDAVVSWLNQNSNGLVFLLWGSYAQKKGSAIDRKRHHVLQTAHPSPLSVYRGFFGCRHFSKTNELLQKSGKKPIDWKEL
Sequence of Endonuclease 8-like 1 (Homo sapiens) (Q96FI4 whole entry): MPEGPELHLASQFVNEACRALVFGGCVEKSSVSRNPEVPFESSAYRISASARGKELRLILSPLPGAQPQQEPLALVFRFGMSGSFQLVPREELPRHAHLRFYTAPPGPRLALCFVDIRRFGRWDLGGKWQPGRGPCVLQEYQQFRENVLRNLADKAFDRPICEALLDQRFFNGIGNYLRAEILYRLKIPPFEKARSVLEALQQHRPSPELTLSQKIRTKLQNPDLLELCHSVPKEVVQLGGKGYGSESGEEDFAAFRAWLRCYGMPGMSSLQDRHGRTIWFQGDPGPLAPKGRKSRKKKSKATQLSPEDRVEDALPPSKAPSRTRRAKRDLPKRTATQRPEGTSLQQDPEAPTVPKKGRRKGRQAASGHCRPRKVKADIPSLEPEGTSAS

inhibition [1] [%]	inhibition [2] [%]	inhibition [3] [%]	inhibition [4] [%]	inhibition [5] [%]	inhibition ([6]; Hit No) [%]	inhibition ([7]; Hit No) [%]	inhibition [8] [%]	inhibition [9] [%]	inhibition ([10]; Hit No) [%]	inhibition ([7]; Hit Yes) [%]	inhibition ([6]; Hit Yes) [%]	inhibition ([10]; Hit Yes) [%]	Compound
12.5	8	8.25	-8.5	-8.34	12	2.55	23.6	3.23	16.1	–	–	–	O=C(O)c1ccccc1S(=O)(=O)NCCCCN1C(=O)c2cccc3cccc(c23)C1=O
-7.64	–	-5.77	-9.84	-1.91	8.97	-3.69	10.2	-6.47	3.33	–	–	–	COc1ccc2[nH]c(I)c(CCNC(C)=O)c2c1
-9.34	-7.99	-9.77	-0.327	12.9	21.2	-9.75	32	18.2	0.685	–	–	–	Cc1onc(-c2ccc(F)cc2)c1COc1ccc(C(=O)N2CCS(=O)(=O)CC2)cn1
11	2.71	0.75	1.16	-5.21	5.5	-0.346	11.7	22.4	13.6	–	–	–	COc1ccc(CC(=O)NCc2ccccc2-c2ccccc2C(=O)NCc2ccc(F)cc2F)cc1
12.1	15.7	-0.204	-7.57	2.66	49.9	–	28.6	15.9	43.2	42.4	–	–	COc1ccc(/C=C/CCCCOc2ccc(C(=O)c3cccc(C(=O)O)c3)cc2CCC(=O)O)cc1
11.5	11.9	6.23	12	10.5	–	–	84.7	62.1	–	53	80.9	73.8	O=S(=O)(Nc1nnc2cc(OCC34CC5CC(CC(C5)C3)C4)c(C3CC3)cn12)C1CC1
7.09	2.26	3.95	-5.51	16.6	20.8	–	23.2	3.92	27	41.1	–	–	Cc1nc(-c2ccc(C(F)(F)F)cc2)sc1COc1ccc([C@H](CC(=O)O)c2ccon2)cc1
-5.04	-3.92	0.306	-1.05	10.5	8.05	0.0968	24.8	42.7	14.9	–	–	–	O=C(c1cc(C2CC2)on1)N(C1CCCCC1)C1CCCCC1
-6.96	-9.52	-7.55	-5.32	-1.08	16.4	-4.9	-5.42	-0.668	8.29	–	–	–	N=C(N)NCCSC(=N)N
24	28.2	13.9	7.14	29.8	67.2	–	50.6	33.1	61.3	45.1	–	–	COc1cc(C(=O)NS(=O)(=O)c2ccccc2C)ccc1Cc1cn(C)c2ccc(NC(=O)OC3CCCC3)cc12
2.81	-2.39	1.49	-2.15	12.9	-5.63	-2.89	-7.47	2.85	1.01	–	–	–	CCOC(=O)C1=C(C)NC(C)=C(C(=O)OC)C1c1cccc([N+](=O)[O-])c1 (centres undefined)
-3.57	–	-4.88	-2.8	7.17	26.4	-8.27	33.4	15	27.7	–	–	–	Cc1cccc(C2CN(C)CCc3c2cc(O)c(O)c3Cl)c1 (centres undefined)
-7.64	–	-2.06	-5.2	0.568	3.94	-9.73	6.98	0.976	12.4	–	–	–	N[C@@H](Cn1cc(F)c(=O)[nH]c1=O)C(=O)O
14.7	2.26	–	-7.52	-4.67	9.27	-3.25	-5.74	9.86	24.4	–	–	–	Cc1cc(C)cc(-c2cnc3cc(Cl)c(-c4cccc(O)c4)cc3c2OCCCN)c1
-1.43	–	1.79	-5.67	8	9.4	-7.78	-0.651	-2.83	9.41	–	–	–	O=C(NCCNCC(O)COc1ccc(O)cc1)N1CCOCC1 (centres undefined)
11.9	14	–	8.83	9.99	56.1	–	47.1	53.9	–	61.2	–	66.5	CC(C)(O)c1ccccc1CC[C@@H](SCC1(CC(=O)O)CC1)c1cccc(/C=C/c2ccc3ccc(Cl)cc3n2)c1
-7.25	–	4.31	-7.06	22.9	3.22	-9.68	-0.521	6.53	19.5	–	–	–	CCCCC[C@H](O)/C=C/[C@H]1[C@H](O)CC(=O)[C@@H]1CCCCCCC(=O)O
-6.91	–	4.6	-2.75	0.568	26.8	3.53	34.4	34.2	15.3	–	–	–	COc1ccc2c(c1)C(C(=O)N(Cc1ccc(N(C)C)cc1)c1ccc(C(C)C)cc1)CCC2 (centres undefined)
-6.19	–	-2.87	-9.96	11.4	1.95	-0.971	4.88	-2.79	8.31	–	–	–	CCCCc1nc(Cl)c(CO)n1Cc1ccc(-c2ccccc2-c2nnn[nH]2)cc1

Compound	inhibition [1] [%]	inhibition [2] [%]	inhibition [3] [%]	inhibition [4] [%]	inhibition [5] [%]	inhibition ([6]; Hit No) [%]	inhibition ([7]; Hit No) [%]	inhibition [8] [%]	inhibition [9] [%]	inhibition ([10]; Hit No) [%]	inhibition ([7]; Hit Yes) [%]	inhibition ([6]; Hit Yes) [%]	inhibition ([10]; Hit Yes) [%]
NCC(O)c1ccc(O)cc1 (centres undefined)	16	2.96	3.71	0.665	2.22	41.7	-0.921	17.4	13.2	14.3	–	–	–
COc1cc(N)c(Cl)cc1C(=O)NC1CN2CCC1CC2 (centres undefined)	-3.07	–	-0.139	-6.64	17.1	-9.33	1	0.595	-7.22	-0.441	–	–	–
CN[C@@H]1Cc2cccc3[nH]c(=O)n(c23)C1	0.551	–	-2.21	-3.54	21.2	11.7	-6.94	46.8	-1.72	15.8	–	–	–
